# Measurements taken from US6545051B1, “Antibacterial hydroxamic acid derivatives” (British Biotech Pharmaceuticals, Ltd., priority 1999, dated 2003).
# Tests used:
# [1] = tested on: Staphylococcus capitis (American Type Culture Collection number 35661); assay: Minimal inhibitory concentration (MIC) against Staphylococcus capitis; assay type: cell-based; conditions: 2×YT broth, 37° C., 18 hours, lowest drug concentration that inhibited visible growth
# Description: Minimal inhibitory concentrations (MIC) of inhibitors against E. coli strain DH5α (Genotype; F-φ80dlacZΔM 15Δ(lacZYA-argF)U 169 deoR recA1 endA1 hsdR17(rk^−, mk^+)phoA supE44λ^−thi-1 gyrA96 relA1) obtained from GibcoBRL Life Technologies, or Staphylococcus capitis (American Type Culture Collection number 35661) were determined as follows. Stock solutions of each test compound were prepared by dissolution of the compound in dimethylsulfoxide at 10 mM. For the determination of the minimal inhibitory concentration, two fold serial dilutions were prepared in 2×YT broth (typtone 16 g/1, yeast extract 10 g/1, sodium chloride 5 g/1 obtained from BIO 101 Inc, 1070 Joshua Way, Vista, Calif. 92083, USA) to yield 0.05 ml compound-containing medium per well. Inocula were prepared from cultures grown overnight in 2×YT broth at 37° C. Cell densities were adjusted to absorbance at 660 nm (A660)=0.1; the optical density-standardized preparations were diluted 1:1000 in 2×YT broth; and each well inoculated with 0.05 ml of the diluted bacteria. Microtiter plates were incubated at 37° C. for 18 hours in a humidified incubator. The MIC (μM) was recorded as the lowest drug concentration that inhibited visible growth.
compound,measurement,setting,value
CCCCCC[C@H](CC(=O)NO)C(=O)N[C@@H](Cc1ccccc1)C(=O)OC(C)C,MIC,[1],100 µM
CCOC(=O)[C@@H](NC(=O)[C@H](CC(C)C)[C@H](C)C(=O)NO)C(C)(C)C [Example 2],melting point,,198 to 203 °C
